Source: patent US12153049B2, “BCR-ABL variants” (Quest Diagnostics Investments LLC, priority 2008, dated 2024)
Several values for one entry are separate records, joined by “and”; a condition that tells them apart may be missing. Identical values can stand only once. Entries after “also recorded” stand apart in the source; their conditions may differ. Counter-ions that a name gives are not always drawn. Like-named read-outs stand apart in the source and are kept apart here.

Legend:
[1] = test system: K562 cells transfected with pMIG/BCR-ABL1p210; test: MTT cell proliferation assay, K562 cells transfected with pMIG/BCR-ABL1p210; format: cell-based, human; conditions: for IC50: pMIG/BCR-ABL1p210 0.1 μg DNA, K562 cells, drug 48 h, read-out: IC50 (median-effect dose, MTT); for Resistance to the drug caused by wild-type BCR-ABL1p210 expression: K562 cells transfected with BCR-ABL1p210
Experimental: (§1) K562 cells were cotransfected with an increasing amount (0 to 100 ng) of plasmid pMIG/35 INS BCR-ABL and 100 ng of either pMIG/BCR-ABL1p210 or empty plasmid (pMIG). […] The effect of the drugs on cell proliferation was measured by MTT assay (FIG. 18A, right panel; mean±S.D; n=3). Dose response to cell death curves of K562 cells exposed to drugs were generated with the CalcuSyn® software package (Biosoft, Ferguson, MO) for each of at least three experiments.

[2] = test system: tyrosine kinase (TK) activity in K562 cells (empty vector); test: Universal Tyrosine Kinase Assay on cell extract, K562 empty vector; format: cell-based, human; conditions: relative to no-drug control, imatinib 1.2 μM, nilotinib 5 nM, dasatinib 5 nM, MK 0457 2 μM, homoharringtonine X μM
Experimental: (§2) K562 cells were cotransfected with increasing amounts of plasmid encoding pMIG/35 INS bcr-abl and either 100 ng of pMIG/BCR-ABL1p210 or the same amount of control vector (empty vector plasmid). […] Rabbit polyclonal IgG anti-Lyn, anti-Aurora A, and anti-Aurora B were obtained from Santa Cruz Biotechnology, (Santa Cruz, CA); rabbit polyclonal IgG anti-p-Src, anti-p-StatS, and anti-p-Crkl were obtained from Cell Signaling (Danvers, MA). Goat anti-rabbit PE (Santa Cruz Biotechnology) was used as the secondary antibody. LYN, p-CRKL, p-SRC, p-STATS, and Aurora A and B status were monitored. All experiments were repeated at least three times. Asterisk indicates p<0.05 relative to Control (empty vector).
(§3) Tyrosine kinase assay was performed using the Universal Tyrosine Kinase Assay Kit (GenWay Biotech, San Diego, CA) according to the manufacturer's instruction. The universal protein tyrosine kinase substrate peptide, Poly (Glu-Tyr) (4:1, 20-50 kDa) was pre-coated onto 96-well microtiter plates. Serial dilutions of prepared cell extract and 5-point standards (with known tyrosine kinase activities) were added to the plate in triplicates along with an ATP-containing kinase buffer. After incubation at 37° C. for 30 min to allow phosphorylation of tyrosine residues, the sample solution was removed and the wells washed with Washing buffer (PBS with 0.05% Tween-20) and blocked with Blocking solution. Anti-phosphotyrosine (PY20)-horse radish peroxidase (HRP) conjugate was then added to the plate. After incubation at 37° C. for 30 min, the PY20-HRP solution was replaced by HRP substrate solution (TMBZ). For colorimetric determination of PTK activity, the sample's specific absorbance at 450 nm was calculated from the standard curve.

[3] = test system: tyrosine kinase (TK) activity in K562 cells transfected with BCR-ABL1p210; test: Universal Tyrosine Kinase Assay on cell extract, K562 BCR-ABL1p210; format: cell-based, human; conditions: relative to no-drug control, imatinib 1.2 μM, nilotinib 5 nM, dasatinib 5 nM, MK 0457 2 μM, homoharringtonine X μM
Experimental: as §2, §3

[4] = test system: phosphorylation of CrkL, LYN, pSRC, pSTAT5, Aurora A and B in K562 cells; test: Phosphorylation of BCR-ABL substrates, K562 cells; format: cell-based, human
Experimental: (§4) The effect of a compound on the kinase activity of the BCR-ABL is assessed by monitoring tyrosine phosphorylation profile of the cellular proteins. […] Genetically modified cells comprising recombinant bcr-abl or variant so of bcr-abl including the splice variant are grown in presence of various amounts of a compound for treating CML patients. […] Amount of phosphorylated CrkL protein can be measured by using detectably labeled anti-phospho CrkL antibody. In one embodiment, the detectable label is phycoerythrin. The signal can be detected by Flow cytometer. Alternatively, the signal can be detected by Fluorescent Microtiter plate reader.
as §2, with “times.” for “times. Asterisk indicates p<0.05 relative to Control (empty vector).”

[5] = test system: K562 CML cells (empty vector); test: MTT cell proliferation assay, K562 cells with empty vector; format: cell-based, human; conditions: for IC50: Empty vector pCMV/GFP, drug 48 h, read-out: IC50 (median-effect dose, MTT)
Experimental: The effect of the drugs on cell proliferation was measured by MTT assay (FIG. 18A, right panel; mean±S.D; n=3). Dose response to cell death curves of K562 cells exposed to drugs were generated with the CalcuSyn® software package (Biosoft, Ferguson, MO) for each of at least three experiments.

[6] = test system: K562 cells transfected with pMIG/35 INS bcr-abl; test: MTT cell proliferation/viability assay, K562 cells transfected with pMIG/35 INS bcr-abl; format: cell-based, human; conditions: for IC50: read-out: IC50 (median-effect dose, MTT)
Experimental: as §1

[7] = test system: tyrosine kinase (TK) activity in K562 cells transfected with BCR-ABL1 35INS; test: Universal Tyrosine Kinase Assay on cell extract, K562 BCR-ABL1 35INS; format: cell-based, human
Experimental: as §2, with “times.” for “times. Asterisk indicates p<0.05 relative to Control (empty vector).”
as §3

[8] = test system: caspase-3 activation in K562 cells; test: Caspase-3 activation (apoptosis) assay in transfected K562 cells; format: cell-based, human; conditions: for Effect of 35 INS BCR-ABL gene transfer on drug-induced caspase-3 activation: K562 cells transfected with 35 INS BCR-ABL
Experimental: To perform caspase assays, K562 cells were transiently transfected in 6-well dishes using the above procedure. […] Typically, 15-25 μg of lysates were analyzed for protease activity by continuously measuring the release of fluorogenic substrate Ac-DEVD-aminofluoromethylcoumarin product from EMD (San Diego, CA) at 37° C., as described (Capdeville et al., Nat. Rev. Drug Discov. 2002, 1:493).
Induction of apoptosis measured by caspase-3 activation (mean [SD]; n=3) in K562 cells transfected with the different plasmids as described above and shown in FIG. 18B.
(§5) Lysates were prepared at the times indicated and examined by caspase-3 assay (left) or by immunoblots using specific antibodies for BIM and actin (right) (see FIGS. 22A-22B).

CML patients = conditions: cited from earlier work
[9] = test system: BIM expression in K562 cells; test: BIM induction by immunoblot in K562 cells; format: cell-based, human; conditions: 24 to 48 hours' incubation
Experimental: as §5

[10] = test system: phosphorylation of CrkL and other substrates in K562 cells transfected with pMIG/35 INS bcr-abl; test: Phosphorylation of BCR-ABL substrates, K562 cells transfected with pMIG/35 INS bcr-abl; format: cell-based, human
Experimental: as §4
as §2, with “times.” for “times. Asterisk indicates p<0.05 relative to Control (empty vector).”

[11] = BCR-ABL1 35INS, relative to no-drug control, imatinib 1.2 μM, nilotinib 5 nM, dasatinib 5 nM, MK 0457 2 μM, homoharringtonine X μM

| Compound | IC50 ([1]; Homo sapiens) [nM] | Relative tyrosine kinase activity [2] [%] | Relative tyrosine kinase activity [3] [%] | Effect on Aurora A and B [4] | IC50 ([5]; Homo sapiens) [nM] | Relative tyrosine kinase activity [7, 11] [%] | Resistance to the drug caused by wild-type BCR-ABL1p210 expression [1] | Effect of 35 INS BCR-ABL gene transfer on drug-induced caspase-3 activation [8] | Cell death in K562 cells [5] | also measured |
| --- | --- | --- | --- | --- | --- | --- | --- | --- | --- | --- |
| Cc1nc(Nc2ncc(C(=O)Nc3c(C)cccc3Cl)s2)cc(N2CCN(CCO)CC2)n1 [Dasatinib, dasatinib] | 11 | 15.6 | 20.6 | no effect | 12 |  |  |  |  |  |
| COC(=O)C[C@](O)(CCCC(C)(C)O)C(=O)O[C@@H]1C(OC)=C[C@]23CCCN2CCc2cc4c(cc2[C@H]13)OCO4 [HHT, homoharringtonine] | 54 | 59.8 | 79.2 |  | 63 | 75.4 |  |  |  | IC50 ([6]; Homo sapiens, K562, 48 h, pMIG/35 INS bcr-abl 0.01 μg DNA, K562 cells, drug 48 h): 61 nM; IC50 ([6]; Homo sapiens, K562, 48 h, pMIG/35 INS bcr-abl 0.05 μg DNA, K562 cells, drug 48 h): 49 nM; IC50 ([6]; Homo sapiens, K562, 48 h, pMIG/35 INS bcr-abl 0.1 μg DNA, K562 cells, drug 48 h): 54 nM |
| Cc1ccc(NC(=O)c2ccc(CN3CCN(C)CC3)cc2)cc1Nc1nccc(-c2cccnc2)n1 [Imatinib, imatinib mesylate] |  |  |  |  |  |  | did not induce resistance | induced resistance; also recorded: increase was inhibited | induced cell death | Caspase-3 activation over time ([8]; CML K562 cells, continuous treatment): increased with time; Primary resistance rate (failure to achieve any hematologic response) (CML patients; accelerated-phase CML): 9%; Secondary resistance rate (hematologic recurrence) (CML patients; accelerated-phase CML): 32%; Primary resistance rate (failure to achieve any hematologic response) (CML patients; blast-phase CML): 51%; Secondary resistance rate (hematologic recurrence) (CML patients; blast-phase CML): 41%; Primary resistance rate (failure to achieve any hematologic response) (CML patients; chronic-phase CML): 3%; Secondary resistance rate (hematologic recurrence) (CML patients; chronic-phase CML): 22%; BIM expression / induction [9]: expressed at increased levels |
| Cc1cc(Nc2cc(N3CCN(C)CC3)nc(Sc3ccc(NC(=O)C4CC4)cc3)n2)n[nH]1 [MK-0457] |  | 87.3 | 96.7 |  |  | 100 | did not induce resistance | did not affect the rate of caspase-3 activation |  | IC50 [1]: 1790 nM; Effect of 35 INS BCR-ABL expression on inhibition of kinases/phosphorylation by the drug [10]: no effect on inhibition; Resistance to the drug caused by 35 INS BCR-ABL expression (MTT) ([6]; K562 cells transfected with pMIG/35 INS bcr-abl): did not induce resistance; IC50 ([6]; pMIG/35 INS bcr-abl 0.01 μg DNA, K562 cells, drug 48 h): 2000 nM; IC50 ([6]; pMIG/35 INS bcr-abl 0.05 μg DNA, K562 cells, drug 48 h): 1980 nM; IC50 ([6]; pMIG/35 INS bcr-abl 0.1 μg DNA, K562 cells, drug 48 h): 1540 nM; IC50 [5]: 1810 nM |
| Cc1cn(-c2cc(NC(=O)c3ccc(C)c(Nc4nccc(-c5cccnc5)n4)c3)cc(C(F)(F)F)c2)cn1 [Nilotinib, nilotinib] | 42 | 23.4 | 33.1 | no effect | 42 |  | did not induce resistance | induced resistance | induced cell death | Increase of IC50 with pMIG/35 INS bcr-abl vector [6]: 1.7 fold; IC50 ([6]; Homo sapiens, K562, 48 h): 52 nM; IC50 [6]: 54 nM and 71 nM; Relative potency in induction of apoptosis (caspase-3 activation) ([8]; K562 cells): more potent than imatinib; Relative tyrosine kinase activity [7]: 76.2%; Phosphorylation of CrkL, LYN, pSRC and pSTAT5 [4]: inhibited phosphorylation |
